ChEMBL document CHEMBL1201862, “PubChem BioAssay data set” (2004)
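Values below derive from 48-hour exposures of cells grown in 96-well plates, with endpoints linearly interpolated between the two concentrations bracketing the appropriate inhibition level. Abbreviation: GI50, concentration required for 50% inhibition of growth.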 Active and inactive are the calls of the source. Cut-off read from the data, not from the text of the source: active = GI50 up to about 1.1 µM and inactive = higher.

How the values were obtained:
Assay in all cases: inhibition of tumour cell growth, NCI panel, 48 h
[1] = test system: HCT-15
[2] = test system: UACC-62
[3] = test system: K562
[4] = test system: SK-MEL-28
[5] = test system: SF-539
[6] = test system: RXF 393
[7] = test system: SN12C
[8] = test system: HOP-92
[9] = test system: DMS-114
[10] = test system: DMS-273
[11] = test system: LXFL 529
[12] = test system: MOLT-4
[13] = test system: IGROV-1
[14] = test system: HOP-62
[15] = test system: SNB-78
[16] = test system: HCT-116
[17] = test system: SF-295
[18] = test system: U-251
[19] = test system: HOP-18
[20] = test system: SK-MEL-5
[21] = test system: 786-0
[22] = test system: RPMI-8226
[23] = test system: KM-20L2
[24] = test system: SNB-75
[25] = test system: SK-OV-3
[26] = test system: A498
[27] = test system: SW-620
[28] = test system: ACHN
[29] = test system: M19-MEL
[30] = test system: OVCAR-8
[31] = test system: COLO 205
[32] = test system: CCRF-CEM
[33] = test system: LOX IMVI
[34] = test system: TK-10
[35] = test system: DLD-1
[36] = test system: EKVX
[37] = test system: OVCAR-3
[38] = test system: XF498
[39] = test system: UACC-257
[40] = test system: A549
[41] = test system: NCI-H460
[42] = test system: HCC 2998
[43] = test system: HL-60
[44] = test system: SNB-19
[45] = test system: M14
[46] = test system: CAKI-1
[47] = test system: OVCAR-4
[48] = test system: NCI-H23
[49] = test system: HT-29
[50] = test system: Malme-3M
[51] = test system: NCI-H522
[52] = test system: SR
[53] = test system: NCI-H226
[54] = test system: UO-31
[55] = test system: SF-268
[56] = test system: KM12
[57] = test system: OVCAR-5
[58] = test system: SK-MEL-2

Cc1c(C#N)c(=O)[nH]c(=O)n1CCN1CCN(C(=O)NCCCCCCNC(=O)N2CCN(CCn3c(C)c(C#N)c(=O)[nH]c3=O)CC2)CC1
GI50 [1]: > 100 µM
GI50 [2]: > 100 µM (inactive)
GI50 [3]: > 100 µM (inactive)
GI50 [4]: > 100 µM (inactive)
GI50 [5]: > 100 µM (inactive)
GI50 [6]: > 100 µM (inactive)
GI50 [7]: > 100 µM (inactive)
GI50 [8]: > 100 µM (inactive)
GI50 [9]: > 100 µM (inactive)
GI50 [10]: > 100 µM (inactive)
GI50 [11]: > 100 µM (inactive)
GI50 [12]: > 100 µM (inactive)
GI50 [13]: > 100 µM (inactive)
GI50 [14]: > 100 µM (inactive)
GI50 [15]: > 100 µM (inactive)
GI50 [16]: > 100 µM (inactive)
GI50 [17]: > 100 µM (inactive)
GI50 [18]: > 100 µM (inactive)
GI50 [19]: > 100 µM (inactive)
GI50 [20]: > 100 µM (inactive)
GI50 [21]: > 100 µM (inactive)
GI50 [22]: > 100 µM (inactive)
GI50 [23]: > 100 µM (inactive)
GI50 [24]: > 100 µM (inactive)
GI50 [25]: > 100 µM (inactive)
GI50 [26]: > 100 µM (inactive)
GI50 [27]: > 100 µM (inactive)
GI50 [28]: > 100 µM (inactive)
GI50 [29]: > 100 µM (inactive)
GI50 [30]: > 100 µM (inactive)
GI50 [31]: > 100 µM (inactive)
GI50 [32]: > 100 µM (inactive)
GI50 [33]: > 100 µM (inactive)
GI50 [34]: > 100 µM (inactive)
GI50 [35]: > 100 µM (inactive)
GI50 [36]: > 100 µM (inactive)
GI50 [37]: > 100 µM (inactive)
GI50 [38]: > 100 µM (inactive)
GI50 [39]: > 100 µM (inactive)
GI50 [40]: > 100 µM (inactive)
GI50 [41]: > 100 µM (inactive)
GI50 [42]: > 100 µM (inactive)
GI50 [43]: > 100 µM (inactive)
GI50 [44]: > 100 µM (inactive)
GI50 [45]: > 100 µM (inactive)
GI50 [46]: > 100 µM (inactive)
GI50 [47]: > 100 µM (inactive)
GI50 [48]: > 100 µM (inactive)
GI50 [49]: > 100 µM (inactive)

O=C1C2c3[nH]c4ccccc4c3C3CCCCCC3C2C(=O)N1c1ccccc1 (stereo not drawn)
GI50 [1]: > 47 µM
GI50 [50]: 9.31 µM (inactive)
GI50 [2]: > 63.7 µM (inactive)
GI50 [3]: > 55 µM (inactive)
GI50 [4]: > 59.8 µM (inactive)
GI50 [5]: 14.4 µM (inactive)
GI50 [6]: 12.4 µM (inactive)
GI50 [7]: 9.71 µM (inactive)
GI50 [8]: 30.1 µM (inactive)
GI50 [9]: > 49.9 µM (inactive)
GI50 [10]: 37.8 µM (inactive)
GI50 [11]: > 86.9 µM (inactive)
GI50 [12]: 16 µM (inactive)
GI50 [13]: 21.8 µM (inactive)
GI50 [14]: 16.9 µM (inactive)
GI50 [51]: 37.7 µM (inactive)
GI50 [15]: 11.7 µM (inactive)
GI50 [16]: 11.2 µM (inactive)
GI50 [17]: 11 µM (inactive)
GI50 [18]: 18.7 µM (inactive)
GI50 [19]: 19.5 µM (inactive)
GI50 [20]: > 100 µM (inactive)
GI50 [21]: 44.9 µM (inactive)
GI50 [52]: > 33.3 µM (inactive)
GI50 [22]: > 100 µM (inactive)
GI50 [23]: > 100 µM (inactive)
GI50 [24]: 3.44 µM (inactive)
GI50 [25]: 15.9 µM (inactive)
GI50 [53]: 21.3 µM (inactive)
GI50 [26]: 30.8 µM (inactive)
GI50 [27]: 24.8 µM (inactive)
GI50 [28]: 39.6 µM (inactive)
GI50 [54]: 38.2 µM (inactive)
GI50 [55]: 39.2 µM (inactive)
GI50 [29]: > 58.1 µM (inactive)
GI50 [30]: 11.8 µM (inactive)
GI50 [31]: > 25.8 µM (inactive)
GI50 [32]: 9.57 µM (inactive)
GI50 [33]: 14.9 µM (inactive)
GI50 [34]: 35.3 µM (inactive)
GI50 [35]: 58.2 µM (inactive)
GI50 [36]: > 68.1 µM (inactive)
GI50 [37]: 16.3 µM (inactive)
GI50 [38]: 22.9 µM (inactive)
GI50 [39]: 30.7 µM (inactive)
GI50 [40]: 34.4 µM (inactive)
GI50 [41]: 11.3 µM (inactive)
GI50 [42]: > 56.1 µM (inactive)
GI50 [56]: > 100 µM (inactive)
GI50 [43]: > 45.6 µM (inactive)
GI50 [44]: 25.8 µM (inactive)
GI50 [45]: 15.9 µM (inactive)
GI50 [46]: 17.4 µM (inactive)
GI50 [57]: > 100 µM (inactive)
GI50 [47]: 3.09 µM (inactive)
GI50 [58]: 22.9 µM (inactive)
GI50 [48]: > 49.8 µM (inactive)
GI50 [49]: > 57.7 µM (inactive)

Cc1ccc(NCC(=O)N2CC(=O)Nc3ccccc32)cc1
GI50 [1]: > 100 µM
GI50 [50]: > 100 µM (inactive)
GI50 [2]: > 100 µM (inactive)
GI50 [3]: > 100 µM (inactive)
GI50 [4]: > 100 µM (inactive)
GI50 [5]: > 100 µM (inactive)
GI50 [6]: > 100 µM (inactive)
GI50 [7]: > 100 µM (inactive)
GI50 [8]: > 100 µM (inactive)
GI50 [9]: > 100 µM (inactive)
GI50 [10]: > 100 µM (inactive)
GI50 [11]: > 100 µM (inactive)
GI50 [12]: > 100 µM (inactive)
GI50 [14]: > 100 µM (inactive)
GI50 [51]: > 100 µM (inactive)
GI50 [15]: > 100 µM (inactive)
GI50 [16]: > 100 µM (inactive)
GI50 [17]: > 100 µM (inactive)
GI50 [18]: > 100 µM (inactive)
GI50 [19]: > 100 µM (inactive)
GI50 [20]: > 100 µM (inactive)
GI50 [21]: > 100 µM (inactive)
GI50 [52]: > 100 µM (inactive)
GI50 [22]: > 100 µM (inactive)
GI50 [23]: > 100 µM (inactive)
GI50 [24]: > 100 µM (inactive)
GI50 [25]: > 100 µM (inactive)
GI50 [53]: > 100 µM (inactive)
GI50 [27]: > 100 µM (inactive)
GI50 [28]: > 100 µM (inactive)
GI50 [54]: > 100 µM (inactive)
GI50 [55]: > 100 µM (inactive)
GI50 [29]: > 100 µM (inactive)
GI50 [30]: > 100 µM (inactive)
GI50 [31]: > 100 µM (inactive)
GI50 [32]: > 100 µM (inactive)
GI50 [33]: > 100 µM (inactive)
GI50 [34]: > 100 µM (inactive)
GI50 [35]: > 100 µM (inactive)
GI50 [36]: > 100 µM (inactive)
GI50 [37]: > 100 µM (inactive)
GI50 [38]: 75.7 µM (inactive)
GI50 [39]: > 100 µM (inactive)
GI50 [40]: > 100 µM (inactive)
GI50 [41]: > 100 µM (inactive)
GI50 [42]: > 100 µM (inactive)
GI50 [56]: > 100 µM (inactive)
GI50 [43]: > 100 µM (inactive)
GI50 [44]: > 100 µM (inactive)
GI50 [45]: > 100 µM (inactive)
GI50 [46]: > 100 µM (inactive)
GI50 [57]: > 100 µM (inactive)
GI50 [47]: > 100 µM (inactive)
GI50 [58]: > 100 µM (inactive)
GI50 [48]: > 100 µM (inactive)
GI50 [49]: > 100 µM (inactive)
